The text below walks through data of patent EP0347733A1, “Optically active hydantoin derivatives” (Eisai Co., Ltd., priority 1988, dated 1989).

For series [1], the system named is aconitine-induced arrhythmia. Nature of the series: aconitine-induced arrhythmia model of mice. The format is in vivo. Conditions: orally administered one hour before intraperitoneal injection of 0.1 mg/kg of aconitine, tachycardia and frequency of ventricular extrasystole from the electrocardiogram, 60 min. The procedure:
The antiarrythmic activity of the compound of the present invention was examined with aconitine-induced arrhythmia model of mice. When 0.1 mg/kg of aconitine is intraperitoneally injected, usually ventricular tachycardia occurs within 20 minutes. The compound of the present invention (d- or ℓ-compound) was orally administered one hour before the intraperitoneal injection of 0.1 mg/kg of aconitine and the tachycardia and the frequency of ventricular extrasystole were determined from the electrocardiogram to determine the antiarrhythmic activity (ED₅₀). The ED₅₀ of the d-compound was 40 mg/kg and that of the ℓ-compound was 5 mg/kg.

In series [2] the test system is mice. Nature of the series: acute toxicity tests with mice. The class given is in vivo. As for the experimental part: In the acute toxicity tests with mice, LD₅₀ of the d-compound was 700 mg/kg and that of the ℓ-compound was 200 mg/kg.
For series [3], the system named is myocardial contraction. Nature of the series: influence on myocardial contraction. The following applies: amount several times as much as the antiarrhythmically effective amount. From the text:
One of the pharmacological features of the compounds of the present invention is that they inhibit myocardial contraction only very slightly. This is a quite desirable property when they are used as the antiarrhythmic agents.

Structures are written as SMILES.

As to `CC1(C)CC2(NC(=O)N(CCCN3CCC(O)CC3)C2=O)c2cc(Cl)ccc2O1` (single isomer, unassigned) [ℓ-compound, ℓ-6-Chloro-2,2-dimethyl-1′-[3-(4-hydroxypiperidino)propyl]spiro[chroman-4,4′-imidazolidine]-2′,5′-dione], the “antiarrhythmic activity (ED₅₀)” value in series [1] was 5 mg/kg. In addition, the LD₅₀ in series [2] amounted to 200 mg/kg. With `CC1(C)CC2(NC(=O)N(CCCN3CCC(O)CC3)C2=O)c2cc(Cl)ccc2O1` (single isomer, unassigned) [d-compound, d-6-Chloro-2,2-dimethyl-1′-[3-(4-hydroxypiperidino)propyl]spiro[chroman-4,4′-imidazolidine]-2′,5′-dione], the “antiarrhythmic activity (ED₅₀)” value in series [1] is on record as 40 mg/kg. Moreover, the LD₅₀ in series [2] is recorded as 700 mg/kg. Take `CC(C)N(CCC(C(N)=O)(c1ccccc1)c1ccccn1)C(C)C` (stereo not drawn) [disopyramide]: in series [3], the “influence on the myocardial contraction” value is listed as “reduce myocardial contraction”. The same measure, in the same setting: in the case of `C=C[C@H]1C[N@@]2CC[C@H]1C[C@@H]2[C@@H](O)c1ccnc2ccc(OC)cc12` [quinidine] it was “reduce myocardial contraction”.
